Results: US20230044304A1, “Nitric oxide generation, dilution, analysis, and topical application compositions, systems, apparatus and methods” (SYK Technologies LLC, priority 2010, published 2023)
Entries after “also recorded” stand apart in the source; their conditions may differ.

Legend:
[1] = test system: bacteria on skin of hands; experiment: Hand exposed to nitric oxide gas in a bag versus DIAL antibacterial soap, zone dilution plating; format: in vivo, human
Description: An experiment 46 used to determine the anti-microbial effectiveness of nitric oxide is illustrated in FIG. 72. In the experiment, five volunteers were selected 48. From a first hand of each volunteer, a technician using sterile gloves collected 50 a sample. This was accomplished by rubbing the back of the volunteer's hand with a sterile cotton collection swab for ten seconds. The swab was then applied 52 to a nutrient agar petri dish using the five corner or zone dilution method.
The five corner or zone dilution method involves mechanically diluting bacteria on a streak (blood agar) plate by sequentially spreading the bacteria across the plate in each of five zones. As the concentration of bacteria increases so do the number of zones containing bacteria. Bacteria on agar plate become visible as distinct circular colonies. Each colony represents an individual cell which has divided repeatedly to form a patch. The number of bacteria can be estimated by counting the number of patches or how far the bacteria is diluted by streaking it on the agar plate through the five zones.
After the sample was collected 50, the first hand was cleaned 54 using nitric oxide. This was done by placing the hand of the volunteer into a one-gallon plastic freezer bag. The bag was then inflated with nitric oxide through tubing attached to a portable nitric oxide generator. […]

[2] = test system: bacteria on a surface, such as a person's skin; experiment: Nitric oxide dose required to kill bacteria on a surface

Structure (SMILES): [N]=O [nitric oxide]
- bacterial colony count compared with washing with antibacterial soap ([1]; 1,000 ppm nitric oxide for fifteen minutes versus DIAL antibacterial soap for 2 minutes, five volunteers): superior to soaps; also recorded: lower bacterial colony count
- colony counts of bacteria exposed to nitric oxide ([1]; experiments by applicant on healthy skin): substantial reductions in colony counts
- dose required to kill bacteria on a surface [2]: ≥ 320 ppm
